Results from US20200392462A1, “METHODS OF FORMING CARDIOMYOCYES” (THE REGENTS OF THE UNIVERSITY OF COLORADO, A BODY CORPORATE, priority 2018, published 2020).

Test: Inhibitor release study by HPLC
Format: physicochemical
Experimental: Inhibitor loading efficiency and release studies: All supernatants after initial loading of inhibitors were stored at −20° C. Supernatants were analyzed by reverse phase high performance liquid chromatography (HPLC). Inhibitor release studies were done sampling particle suspension inhibitor release up to 6 days. Briefly, drug release solution was prepared using 1 mL of 1×PBS, and 1 mL of 1% bovine serum albumin. The lyophilized pSi were suspended at a concentration of 3 mg/mL of drug release solution and incubated at 37° C. with constant stirring. At 1, 3, 5, 12 and every 24 hours thereafter, suspensions were centrifuged and 1 ml drug release solution was taken and replaced with fresh drug release solution. Agilent Zorbax Eclipse Plus C18 (100×4.6 mm, 3.5 um pore particle size) column was used for analysis. Samples flowed through the column at 1.0 ml/min and with a mobile phase consisting of acetonitrile in 0.1% trifluoroacedic acid: H2O in 0.1% trifluoroacedic acid (V/V). Samples were analyzed at 281 nm.

cumulative release (from pSi, at 144 hours) | cumulative release (from pSi, within the first 24 hours, 37° C., PBS/BSA) | cumulative release (from pSi coated with 5 wt % PLGA 50:50, after 144 hours) | cumulative release (from pSi coated with 5 wt % PLGA 50:50, end of 72 hours) | cumulative release (from pSi coated with 5 wt % PLGA 50:50, within the first 48 hours) | SMILES
~100% | 81.1±5.3% | – | – | – | Cc1c[nH]c(-c2cnc(NCCNc3ccc(C#N)cn3)nc2-c2ccc(Cl)cc2Cl)n1 [CHIR99021]
– | – | 56.4±7.2% | 40.2±9.1% | 27.8±7.2% | Cc1ccc2nc(NC(=O)CSc3nc4c(c(=O)n3-c3ccccc3)SCC4)sc2c1 [IWP2]
